Experimental data published in US20230240290A1, “USE OF (Z)-3-HEXENYL ESTERS AND METHOD FOR PROTECTING PLANTS AGAINST PESTS” (UNIVERSITAT POLITÈCNICA DE VALÈNCIA, priority 2020, published 2023).

Key:
Tuta absoluta [1] = experiment: Laying of Tuta absoluta on exposed tomato plants; assay type: in vivo; conditions: T. absoluta, 72 hours; permanent exposure
Protocol: It was also studied whether the defensive activation induced by exposure to (Z)-3-hexenyl propanoate could influence the development of two highly important phytophages in tomato cultivation, the red spider, T. urticae, and the lepidoptera T. absoluta. The individuals used in these experiments came from the captive breeding of these species that are kept in the IVIA described above. The exposure time of the plant to the volatile was tested on both phytophages in two different ways, one where the plant was only exposed to the volatile for 24 hours and then the herbivore to be assayed was immediately released, and the other where the volatile was permanently exposed throughout the experiment.
For this purpose, two climatic chambers were used under the same environmental conditions [25±2° C., 65±5% HR and 14:10 h (L:D) photoperiod], wherein, to avoid interference between the volatiles, one was assigned to the (Z)-3-hexenyl propanoate treatments and one to the control treatment. […]
Two consecutive experiments were performed to assess the effect of exposure to both volatiles on T. absoluta. […] The laying of T. absoluta was assessed in 8 tomato plants (cv. Moneymaker) per treatment. […] After this time, T. absoluta adults were removed, and the number of eggs was counted.

Tuta absoluta [2] = conditions: in vivo
Protocol: Two consecutive experiments were performed to assess the effect of exposure to both volatiles on T. absoluta. The first experiment studied the effect on the laying of T absoluta. The selected eggs laid in the first experiment were later used in the second experiment to study the mortality of immature T. absoluta specimens developed in plants exposed to (Z)-3-hexenyl propanoate. The same three treatments described above for T. urticae were also assayed for T. absoluta. The laying of T. absoluta was assessed in 8 tomato plants (cv. Moneymaker) per treatment. Each of the plants was isolated inside a plastic cage (60×60×60 cm) (BugDorm-2) and kept in a climatic chamber at 25±2° C., 65±5% HR, 14:10 (L:D) h photoperiod following the same assay distribution described for T. urticae. Inside each cage (replica), 2 adult pairs were released from T. absoluta (males and females) and left undisturbed for 72 hours. After this time, T. absoluta adults were removed, and the number of eggs was counted.
To study the mortality of T. absoluta in the plants exposed to the 3 treatments described above, 6 T. absoluta eggs per plant were equally distributed on all the leaves with the help of a fine brush. […] Mortality of T. absoluta was assessed in 8 tomato plants (cv. Moneymaker) per treatment. […] As soon as the adults began to emerge, they were counted and removed daily from the cages.

[3] = test system: PAL (salicylic acid pathway); experiment: Transcriptional response of PAL in Carrizo citrange plants exposed to the volatile; assay type: in vivo; conditions: intact Carrizo citrange plants exposed 24 h; n=6
Protocol: Two weeks after seed germination, the seedlings were individually transplanted into pots (8×8×8 cm). The plants were kept in a greenhouse with a plastic cover at approximate climatic conditions of 25±5° C., a relative humidity of 65%±5%, and a natural light photoperiod, about 14:10 h (light:dark). Carrizo citrange plants that had not received any pesticide treatment at 8 weeks of age (approximately 20 cm tall) were used. The volatile (Z)-3-hexenyl propanoate was obtained from Sigma-Aldrich (St. Louis, Mo., USA). The volatile was exposed by using a 2×2 cm piece of filter paper on which 10 μl of a solution containing the corresponding volatile at a concentration of 1:10,000 [(Z)-3-hexenyl propanoate:methanol] was impregnated as an emitting source of the corresponding volatile (Pérez-Hedo, M. et al. Biocontrol, 63: 203-213 (2018)). […]
The methodology followed for the extraction and quantification of gene expression was described by Pérez-Hedo et al. Journal of Pest Science 3: 543-554 (2015). The primers used were forward primer: 5′-[…]-3′ (SEQ ID NO: 11) and reverse primer: 5′-[…]-3′ (SEQ ID NO: 12) for the quantification of LOX2, forward primer: 5′-[…]-3′ (SEQ ID NO: 13) and reverse primer: 5′-[…]-3′ (SEQ ID NO: 14) for PAL and forward primer: 5′-[…]-3′ (SEQ ID NO: 15) and reverse primer: 5′-[…]-3′ (SEQ ID NO: 16) for the NPR5 gene. […]

[4] = test system: NPR1 (salicylic acid pathway); experiment: Transcriptional response of NPR1 in Carrizo citrange plants exposed to the volatile; assay type: in vivo; conditions: intact Carrizo citrange plants exposed 24 h; n=6

## CC/C=C\CCOC(=O)CC [(Z)-3-hexenyl propanoate]
Tuta absoluta [1]
  Reduction in laying compared to the control: 67.2±15.0%
Tuta absoluta [2]
  Mortality from T. absoluta egg to adult: around 80%
[3]
  Transcriptional response of PAL compared to control: significantly overexpressed
[4]
  Transcriptional response of NPR1 compared to control: significantly overexpressed
